The values that follow come from patent US20260055079A1, “PHTHALAZINONE COMPOUNDS AS PARP7 INHIBITORS” (AZKARRA THERAPEUTICS, INC., priority 2022, published 2026).

One assay has as its target His-GST-PARP7 (Homo sapiens (Human), UniProt Q7Z3E1). Description: PARP7 biochemical assay. Particulars: read-out: PARP7 IC50.
The subject of assay [1] is NCI-H1373 (human lung adenocarcinoma) cells. Description: Cell proliferation assay (CellTiter-Glo), NCI-H1373. In kind it is cell-based. Particulars: Homo sapiens, NCI-H1373, 144 h, read-out: NCI-H1373 GI50.

Like-named read-outs stand apart in the source and are kept apart here. Where only a bound is given, the exact number is not on record here.

Sequence of His-GST-PARP7 (Q7Z3E1 whole entry): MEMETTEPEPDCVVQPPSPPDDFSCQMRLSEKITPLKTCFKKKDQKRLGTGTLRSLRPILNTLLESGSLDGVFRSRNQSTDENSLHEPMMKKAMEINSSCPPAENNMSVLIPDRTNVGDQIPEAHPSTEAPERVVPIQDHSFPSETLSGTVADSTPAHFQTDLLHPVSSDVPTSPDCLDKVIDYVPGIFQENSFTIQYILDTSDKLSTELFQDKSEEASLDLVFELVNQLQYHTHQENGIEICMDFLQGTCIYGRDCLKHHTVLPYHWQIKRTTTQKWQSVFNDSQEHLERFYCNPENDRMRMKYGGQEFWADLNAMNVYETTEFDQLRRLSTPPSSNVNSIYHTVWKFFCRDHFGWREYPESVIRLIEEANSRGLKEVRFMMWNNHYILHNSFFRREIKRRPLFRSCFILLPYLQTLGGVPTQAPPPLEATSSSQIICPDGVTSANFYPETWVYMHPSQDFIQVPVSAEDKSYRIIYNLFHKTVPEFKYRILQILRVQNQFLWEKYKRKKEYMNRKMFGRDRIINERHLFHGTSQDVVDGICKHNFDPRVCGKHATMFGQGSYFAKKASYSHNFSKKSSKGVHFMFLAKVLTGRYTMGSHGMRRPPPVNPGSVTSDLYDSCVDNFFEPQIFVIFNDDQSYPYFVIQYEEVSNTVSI

Take `N#Cc1ccc(N2CCN(C(=O)c3cc(Cc4n[nH]c(=O)c5ccc(OCC(F)(F)F)cc45)ccc3F)CC2)nc1` [Example 9, 6-(4-(2-Fluoro-5-((4-oxo-7-(2,2,2-trifluoroethoxy)-3,4-dihydrophthalazin-1-yl)methyl)benzoyl)piperazin-1-yl)nicotinonitrile]: the IC50 on His-GST-PARP7 was less than 50 nM. Also, the GI50 in assay [1] is 100 to 1000 nM.

With `COC1CN(c2ccc3c(=O)[nH]nc(Cc4ccc(F)c(C(=O)N5CCN(c6ccc(C#N)cn6)CC5)c4)c3c2)C1` [Example 11, 6-(4-(2-Fluoro-5-((7-(3-methoxyazetidin-1-yl)-4-oxo-3,4-dihydrophthalazin-1-yl)methyl)benzoyl)piperazin-1-yl)nicotinonitrile], at His-GST-PARP7, the IC50 was less than 50 nM. Moreover, the GI50 in assay [1] is 100 to 1000 nM.

With `N#Cc1ccc(N2CCN(C(=O)c3cc(Cc4n[nH]c(=O)c5ccc(NC6CC6)cc45)ccc3F)CC2)nc1` [Example 12, 6-(4-(5-((7-(Cyclopropylamino)-4-oxo-3,4-dihydrophthalazin-1-yl)methyl)-2-fluorobenzoyl)piperazin-1-yl)nicotinonitrile], the 50% inhibitory concentration (IC50) at His-GST-PARP7 was less than 50 nM. Moreover, the GI50 in assay [1] (6 days, CellTiter-Glo) was 100 to 1000 nM.

`C#CCNc1ccc2c(=O)[nH]nc(Cc3ccc(F)c(C(=O)N4CCN(c5ccc(C#N)cn5)CC4)c3)c2c1` [Example 15, 6-(4-(2-Fluoro-5-((4-oxo-7-(prop-2-ynylamino)-3,4-dihydrophthalazin-1-yl)methyl)benzoyl)piperazin-1-yl)nicotinonitrile]: the IC50 on His-GST-PARP7 is less than 50 nM. The GI50 in assay [1] (6 days, CellTiter-Glo) was in the range of 1000 to 5000 nM.

For `C#CCN(C)c1ccc2c(=O)[nH]nc(Cc3ccc(F)c(C(=O)N4CCN(c5ccc(C#N)cn5)CC4)c3)c2c1` [Example 17, 6-(4-(2-Fluoro-5-((7-(methyl(prop-2-ynyl)amino)-4-oxo-3,4-dihydrophthalazin-1-yl)methyl)benzoyl)piperazin-1-yl)nicotinonitrile], the IC50 at His-GST-PARP7 was less than 50 nM. Also, the GI50 in assay [1] (6 days, CellTiter-Glo) was in the range of 1000 to 5000 nM.

As to `CC#CCOc1ccc2c(=O)[nH]nc(Cc3ccc(F)c(C(=O)N4CCN(c5ccc(C#N)cn5)CC4)c3)c2c1` [Example 19, 6-(4-(5-((7-(But-2-ynyloxy)-4-oxo-3,4-dihydrophthalazin-1-yl)methyl)-2-fluorobenzoyl)piperazin-1-yl)nicotinonitrile], the IC50 on His-GST-PARP7 is less than 50 nM. Besides, the GI50 in assay [1] (6 days, CellTiter-Glo) was 100 to 1000 nM.

In the case of `N#Cc1ccc(N2CCN(C(=O)c3cc(Cc4n[nH]c(=O)c5ccc(OC(F)F)cc45)ccc3F)CC2)nc1` [Example 21, 6-(4-(5-((7-(Difluoromethoxy)-4-oxo-3,4-dihydrophthalazin-1-yl)methyl)-2-fluorobenzoyl)piperazin-1-yl)nicotinonitrile], on His-GST-PARP7, the IC50 is less than 50 nM. In addition, the GI50 in assay [1] is 100 to 1000 nM.

Consider `N#Cc1ccc(N2CCN(C(=O)c3cc(Cc4n[nH]c(=O)c5ccc(NCC(F)(F)F)cc45)ccc3F)CC2)nc1` [Example 22, 6-(4-(2-Fluoro-5-((4-oxo-7-((2,2,2-trifluoroethyl)amino)-3,4-dihydrophthalazin-1-yl)methyl)benzoyl)piperazin-1-yl)nicotinonitrile], for which the IC50 on His-GST-PARP7 was less than 50 nM. Besides, the GI50 in assay [1] (6 days, CellTiter-Glo) was 1000 to 5000 nM.

As for `N#Cc1ccc(N2CCN(C(=O)c3cc(Cc4n[nH]c(=O)c5ccc(NC6CCC6)cc45)ccc3F)CC2)nc1` [Example 29, 6-(4-(5-((7-(Cyclobutylamino)-4-oxo-3,4-dihydrophthalazin-1-yl)methyl)-2-fluorobenzoyl)piperazin-1-yl)nicotinonitrile], the IC50 at His-GST-PARP7 is less than 50 nM. In assay [1] (6 days, CellTiter-Glo), the GI50 was in the range of 100 to 1000 nM.

With `N#Cc1ccc(N2CCN(C(=O)c3cc(Cc4n[nH]c(=O)c5ccc(NCCC(F)(F)F)cc45)ccc3F)CC2)nc1` [Example 33, 6-(4-(2-Fluoro-5-((4-oxo-7-((3,3,3-trifluoropropyl)amino)-3,4-dihydrophthalazin-1-yl)methyl)benzoyl)piperazin-1-yl)nicotinonitrile], the IC50 at His-GST-PARP7 was less than 50 nM. The GI50 in assay [1] (6 days, CellTiter-Glo) fell in the range of 1000 to 5000 nM.

Turning to `CC#Cc1ccc2c(=O)[nH]nc(Cc3ccc(F)c(C(=O)N4CCN(C(=O)CC#N)CC4)c3)c2c1` [Example 58, 3-(4-(2-Fluoro-5-((4-oxo-7-(prop-1-ynyl)-3,4-dihydrophthalazin-1-yl)methyl)benzoyl)piperazin-1-yl)-3-oxopropanenitrile], the IC50 on His-GST-PARP7 was less than 50 nM. Besides, the 50% growth inhibitory concentration (GI50) in assay [1] (6 days, CellTiter-Glo) was greater than 5000 nM.

Consider `CC#Cc1ccc2c(=O)[nH]nc(Cc3ccc(F)c(C(=O)N4CC5(C4)CN(c4ccc(C#N)cn4)C5)c3)c2c1` [Example 60, 6-(6-(2-Fluoro-5-((4-oxo-7-(prop-1-yn-1-yl)-3,4-dihydrophthalazin-1-yl)methyl)benzoyl)-2,6-diazaspiro[3.3]heptan-2-yl)nicotinonitrile], for which the IC50 on His-GST-PARP7 is less than 50 nM. The GI50 in assay [1] (6 days, CellTiter-Glo) lay within 1000 to 5000 nM.

With `CC#Cc1ccc2c(=O)[nH]nc(Cc3ccc(F)c(C(=O)N4CCn5c(nnc5C5CC5)C4)c3)c2c1` [Example 63, 4-[[3-(3-cyclopropyl-6,8-dihydro-5H-[1,2,4]triazolo[4,3-a]pyrazine-7-carbonyl)-4-fluoro-phenyl]methyl]-6-prop-1-ynyl-2H-phthalazin-1-one], the IC50 at His-GST-PARP7 was less than 50 nM. Further, in assay [1] (6 days, CellTiter-Glo), the GI50 is greater than 5000 nM.

For `CC#Cc1ccc2c(=O)[nH]nc(Cc3ccc(F)c(C(=O)N4C[C@H]5C[C@@H]4CN5c4ccc(C#N)cn4)c3)c2c1` [Example 66, 6-((1R,4R)-5-(2-Fluoro-5-((4-oxo-7-(prop-1-ynyl)-3,4-dihydrophthalazin-1-yl)methyl)benzoyl)-2,5-diazabicyclo[2.2.1]heptan-2-yl)nicotinonitrile], the half-inhibitory concentration (IC50) on His-GST-PARP7 is less than 50 nM. Further, the GI50 in assay [1] (6 days, CellTiter-Glo) fell in the range of 1000 to 5000 nM.

For the compound `CC#Cc1ccc2c(=O)[nH]nc(Cc3ccc(F)c(C(=O)N4CCC(F)(c5ccc(C#N)cn5)CC4)c3)c2c1` [Example 67, 6-(4-Fluoro-1-(2-fluoro-5-((4-oxo-7-(prop-1-yn-1-yl)-3,4-dihydrophthalazin-1-yl)methyl)benzoyl)piperidin-4-yl)nicotinonitrile], on His-GST-PARP7, the IC50 lay within 50 to 100 nM. For the same compound, in assay [1] (6 days, CellTiter-Glo), the GI50 was 1000 to 5000 nM.

As for `CC#Cc1ccc2c(=O)[nH]nc(Cc3ccc(F)c(C(=O)N4CC(N(C)c5cc(C#N)ccn5)C4)c3)c2c1` [Example 69], at His-GST-PARP7, the IC50 is greater than 2000 nM. For the same compound, the GI50 in assay [1] (6 days, CellTiter-Glo) is greater than 5000 nM.

Regarding `CC#Cc1ccc2c(=O)[nH]nc(Cc3ccc(F)c(C(=O)N4CC(N(C)c5ccc(C#N)cn5)C4)c3)c2c1` [Example 70, 6-((1-(2-Fluoro-5-((4-oxo-7-(prop-1-yn-1-yl)-3,4-dihydrophthalazin-1-yl)methyl)benzoyl)azetidin-3-yl)(methyl)amino)nicotinonitrile 2,2,2-trifluoroacetate], the IC50 on His-GST-PARP7 is greater than 2000 nM. In addition, the GI50 in assay [1] (6 days, CellTiter-Glo) was greater than 5000 nM.

With `CC#Cc1ccc2c(=O)[nH]nc(Cc3ccc(F)c(C(=O)N4CCN(c5ccc(C#N)cn5)C(=O)C4(C)C)c3)c2c1` [Example 71, 6-(4-(2-Fluoro-5-((4-oxo-7-(prop-1-yn-1-yl)-3,4-dihydrophthalazin-1-yl)methyl)benzoyl)-3,3-dimethyl-2-oxopiperazin-1-yl)nicotinonitrile], the IC50 at His-GST-PARP7 was less than 50 nM. In assay [1] (6 days, CellTiter-Glo), the GI50 fell in the range of 1000 to 5000 nM.

On to `CC#Cc1cc2c(Cc3ccc(F)c(C(=O)N4CCN(c5ccc(C#N)cn5)CC4)c3)n[nH]c(=O)c2cc1C` [Example 83, 6-(4-(2-Fluoro-5-((6-methyl-4-oxo-7-(prop-1-yn-1-yl)-3,4-dihydrophthalazin-1-yl)methyl)benzoyl)piperazin-1-yl)nicotinonitrile], for which the IC50 at His-GST-PARP7 was less than 50 nM. For the same compound, the GI50 in assay [1] (6 days, CellTiter-Glo) fell in the range of 100 to 1000 nM.

`N#Cc1ccc(N2CCN(C(=O)c3cccc(Cc4n[nH]c(=O)c5c(F)cccc45)c3)CC2)nc1` [Example 88, 6-(4-(3-((5-Fluoro-4-oxo-3,4-dihydrophthalazin-1-yl)methyl)benzoyl)piperazin-1-yl)nicotinonitrile]: the IC50 at His-GST-PARP7 is less than 50 nM. In addition, the GI50 in assay [1] (6 days, CellTiter-Glo) was in the range of 100 to 1000 nM.

As to `O=C(c1cc(Cc2n[nH]c(=O)c3ccc(OC4CCC4)cc23)ccc1F)N1CCN(C(=O)C2CC2)CC(F)(F)C1` [Example 127, 6-Cyclobutoxy-4-(3-(4-(cyclopropanecarbonyl)-6,6-difluoro-1,4-diazepane-1-carbonyl)-4-fluorobenzyl)phthalazin-1(2H)-one], the IC50 on His-GST-PARP7 is less than 50 nM. Also, in assay [1] (6 days, CellTiter-Glo), the GI50 lay within 1000 to 5000 nM.

Consider `O=C(c1cc(Cc2n[nH]c(=O)c3ccc(OC4CCC4)cc23)ccc1F)N1CCN(c2ccc(O)cn2)CC1` [Example 140, 6-cyclobutoxy-4-(4-fluoro-3-(4-(5-hydroxypyridin-2-yl)piperazine-1-carbonyl)benzyl)phthalazin-1(2H)-one], for which the IC50 on His-GST-PARP7 is less than 50 nM. Also, in assay [1] (6 days, CellTiter-Glo), the concentration for 50% growth inhibition (GI50) was in the range of 1000 to 5000 nM.

For `O=C(c1cc(Cc2n[nH]c(=O)c3ccc(OC4CCC4)cc23)ccc1F)N1CCn2c(nnc2C(F)(F)F)C1` [Example 145, 6-cyclobutoxy-4-(4-fluoro-3-(3-(trifluoromethyl)-5,6,7,8-tetrahydro-[1,2,4]triazolo[4,3-a]pyrazine-7-carbonyl)benzyl)phthalazin-1(2H)-one], the IC50 at His-GST-PARP7 was less than 50 nM. Moreover, in assay [1] (6 days, CellTiter-Glo), the GI50 lay in the range of 1000 to 5000 nM.

With `O=C(c1cc(Cc2n[nH]c(=O)c3ccc(OC4CCC4)cc23)ccc1F)N1CCn2c(nnc2C2CC2)C1` [Example 146, 6-cyclobutoxy-4-(3-(3-cyclopropyl-5,6,7,8-tetrahydro-[1,2,4]triazolo[4,3-a]pyrazine-7-carbonyl)-4-fluorobenzyl)phthalazin-1(2H)-one], on His-GST-PARP7, the 50% inhibitory concentration (IC50) was less than 50 nM. In assay [1] (6 days, CellTiter-Glo), the concentration for 50% growth inhibition (GI50) is greater than 5000 nM.

Consider `O=C(c1cc(Cc2n[nH]c(=O)c3ccc(OC4CCC4)cc23)ccc1Cl)N1CCN(c2ncc(C(F)(F)F)cn2)CC1` [Example 169, 4-(4-chloro-3-(4-(5-(trifluoromethyl)pyrimidin-2-yl)piperazine-1-carbonyl)benzyl)-6-cyclobutoxyphthalazin-1(2H)-one], for which the IC50 on His-GST-PARP7 was less than 50 nM. In addition, the GI50 in assay [1] (6 days, CellTiter-Glo) is less than 100 nM.

Take `COc1ccc2c(=O)[nH]nc(Cc3ccc(S(C)(=O)=O)c(C(=O)N4CCN(c5ccc(C#N)cn5)CC4)c3)c2c1` [Example 182, 6-(4-(5-((7-Methoxy-4-oxo-3,4-dihydrophthalazin-1-yl)methyl)-2-(methylsulfonyl)benzoyl)piperazin-1-yl)nicotinonitrile]: the IC50 on His-GST-PARP7 is less than 50 nM. Also, the GI50 in assay [1] (6 days, CellTiter-Glo) is greater than 5000 nM.
